Measurements from US7160888B2, “[1,8]naphthyridin-2-ones and related compounds for the treatment of schizophrenia” (Warner Lambert Company LLC, priority 2003, dated 2007).

How the values were obtained:
[1] = target: D2 receptor (Homo sapiens, UniProt P14416); assay: [3H]Thymidine uptake assay for D2 intrinsic activity; type: cell-based; conditions: Table 1; test compound 1 μM; 1 μM Quinpirole = 100% intrinsic activity
D2 receptor, sequence (P14416 whole entry): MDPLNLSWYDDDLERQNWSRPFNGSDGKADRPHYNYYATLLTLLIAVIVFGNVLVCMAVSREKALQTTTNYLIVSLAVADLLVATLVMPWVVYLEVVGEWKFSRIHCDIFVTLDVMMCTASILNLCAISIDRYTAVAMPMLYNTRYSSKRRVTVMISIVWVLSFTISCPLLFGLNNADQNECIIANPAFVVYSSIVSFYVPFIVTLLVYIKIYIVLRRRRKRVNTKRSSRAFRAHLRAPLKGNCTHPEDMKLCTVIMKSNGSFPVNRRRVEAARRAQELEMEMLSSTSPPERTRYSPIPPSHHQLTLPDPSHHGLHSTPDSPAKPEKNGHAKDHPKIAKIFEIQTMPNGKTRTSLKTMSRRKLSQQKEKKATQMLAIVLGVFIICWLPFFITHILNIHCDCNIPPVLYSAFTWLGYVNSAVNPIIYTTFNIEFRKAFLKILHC
Protocol: D2 intrinsic activity of title compounds of the Examples, below, was determined using the [^3H]thymidine uptake assay described below.
[^3H]Thymidine Uptake Assay for D2 Intrinsic Activity
Cells are serum deprived by washing twice with 200 μl of serum-free media. 90 μl serum-free media was added to each well. The plates ware incubated for two to three hours. 10 μl of serum-containing media, as a positive control, vehicle (serum-free media), negative control (an antagonist) or test compounds and standards (10 μl of a 10 μM solution for a final concentration of 1 μM) in serum-free media were added to wells. The plates are returned to the incubator. Eighteen hours later [^3H]thymidine is added (0.5 μCi/well in 10 μl of serum-free media) and the plates are returned to the incubator. […] The plates are returned to the incubator, once again. One hour later the assay is terminated by rapid filtration through Whatman GF/C glass fiber filters. Filters are washed four times with 500 ml of 50 mM Tris-HCl pH 7.0 buffer, for example, using a Brandel MLR-96T cell harvester. […] Intrinsic activity is defined as total uptake (1 μM Quinpirole) minus serum-free media (no uptake). Test compounds are compared to 1 μM Quinpirole (full DA agonist), which was classified as 100% intrinsic activity.

SMILES | Emax at 1 µM [1] | melting point
Cc1cc2ccc(CCCCCN3CCN(c4cccc(Cl)c4Cl)CC3)nc2[nH]c1=O [Example D5, 7-{5-[4-(2,3-Dichloro-phenyl)-piperazin-1-yl]-pentyl}-3-methyl-1H-[1,8]naphthyridin-2-one] | 15% | 157 to 158 °C
O=C1NCc2ccc(OCCCCN3CCN(c4cccc(Cl)c4Cl)CC3)nc2N1 [Example F1, 7-{4-[4-(2,3-Dichloro-phenyl)-piperazin-1-yl]-butoxy}-3,4-dihydro-1H-pyrido[2,3-d]pyrimidin-2-one] | 8% | 166 to 167 °C
Cc1cc(=O)[nH]c2nc(CCCCCN3CCN(c4cccc(Cl)c4Cl)CC3)ccc12 [Example D3, 7-{5-[4-(2,3-Dichloro-phenyl)-piperazin-1-yl]-pentyl}-4-methyl-1H-[1,8]naphthyridin-2-one] | 15% | 195 to 196 °C
Cc1cc2c(nc1OCCCCN1CCN(c3cccc4ccccc34)CC1)NC(=O)CC2 [Example E2, 6-Methyl-7-[4-(4-naphthalen-1-yl-piperazin-1-yl)-butoxy]-3,4-dihydro-1H-[1,8]naphthyridin-2-one] | 22% | 76 to 78 °C
Cc1c(C)c2ccc(CCCCCN3CCN(c4cccc(Cl)c4Cl)CC3)nc2[nH]c1=O [Example D8, 7-{5-[4-(2,3-Dichloro-phenyl)-piperazin-1-yl]-pentyl}-3,4-dimethyl-1H-[1,8]naphthyridin-2-one] | 8% | 202 to 203 °C
CC(=O)c1cccc(N2CCN(CCCCOc3ccc4c(n3)NC(=O)CC4)CC2)c1Cl [Example A32, 7-{4-[4-(3-Acetyl-2-chloro-phenyl)-piperazin-1-yl]-butoxy}-3,4-dihydro-1H-[1,8]naphthyridin-2-one] | 7% | 138 to 139 °C
O=C1CCCc2c1cccc2N1CCN(CCCCOc2ccc3ccc(=O)[nH]c3n2)CC1 [Example B42, 7-{4-[4-(5-Oxo-5,6,7,8-tetrahydro-naphthalen-1-yl)-piperazin-1-yl]-butoxy}-1H-[1,8]naphthyridin-2-one] | 37% | 158 to 160 °C
O=C1NCc2ccc(OCCCCN3CCN(c4cccc5ccccc45)CC3)nc2N1 [Example F2, 7-[4-(4-Naphthalen-1-yl-piperazin-1-yl)-butoxy]-3,4-dihydro-1H-pyrido[2,3-d]pyrimidin-2-one] | 30% | 136 to 138 °C
Cc1cc2c(nc1OCCCCN1CCN(c3cccc(Cl)c3Cl)CC1)NC(=O)CC2 [Example E1, 7-{4-[4-(2,3-Dichloro-phenyl)-piperazin-1-yl]-butoxy}-6-methyl-3,4-dihydro-1H-[1,8]naphthyridin-2-one] | 32% | 138 to 139 °C
CC(=O)c1cccc(N2CCN(CCCCOc3ccc4ccc(=O)[nH]c4n3)CC2)c1Cl [Example B6, 7-{4-[4-(3-Acetyl-2-chloro-phenyl)-piperazin-1-yl]-butoxy}-1H-[1,8]naphthyridin-2-one] | 16% | 108 to 110 °C
